Experiment [1] addresses T1, human NPR1 (Homo sapiens, UniProt P16066).
T1 construct: host or cells: CHO-K1
T1 sequence (P16066 33-1061): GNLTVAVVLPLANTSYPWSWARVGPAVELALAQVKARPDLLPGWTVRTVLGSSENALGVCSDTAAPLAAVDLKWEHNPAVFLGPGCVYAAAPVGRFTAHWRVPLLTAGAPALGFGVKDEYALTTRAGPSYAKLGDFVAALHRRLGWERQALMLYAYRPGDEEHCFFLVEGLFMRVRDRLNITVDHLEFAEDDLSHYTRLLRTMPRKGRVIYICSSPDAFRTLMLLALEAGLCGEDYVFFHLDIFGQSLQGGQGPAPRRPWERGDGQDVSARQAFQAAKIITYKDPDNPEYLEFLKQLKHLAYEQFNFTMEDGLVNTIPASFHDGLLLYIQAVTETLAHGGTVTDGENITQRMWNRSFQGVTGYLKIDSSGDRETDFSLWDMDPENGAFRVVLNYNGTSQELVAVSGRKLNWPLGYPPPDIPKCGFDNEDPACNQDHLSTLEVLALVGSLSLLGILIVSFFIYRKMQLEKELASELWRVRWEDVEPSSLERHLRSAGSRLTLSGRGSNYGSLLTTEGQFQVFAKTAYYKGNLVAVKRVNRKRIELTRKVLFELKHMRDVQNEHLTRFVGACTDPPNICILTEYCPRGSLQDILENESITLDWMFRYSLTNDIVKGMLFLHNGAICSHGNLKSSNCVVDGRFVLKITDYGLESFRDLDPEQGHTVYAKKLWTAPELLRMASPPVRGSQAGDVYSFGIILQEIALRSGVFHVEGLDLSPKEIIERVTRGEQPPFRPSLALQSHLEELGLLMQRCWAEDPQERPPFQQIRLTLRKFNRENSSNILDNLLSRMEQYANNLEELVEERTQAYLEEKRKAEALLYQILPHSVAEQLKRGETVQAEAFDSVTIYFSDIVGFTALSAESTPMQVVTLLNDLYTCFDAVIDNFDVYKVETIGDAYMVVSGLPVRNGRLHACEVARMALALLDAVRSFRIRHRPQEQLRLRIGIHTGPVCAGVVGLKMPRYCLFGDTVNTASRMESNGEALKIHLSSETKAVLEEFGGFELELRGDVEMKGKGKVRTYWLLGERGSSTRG
Briefly: Cellular cGMP production assay, human NPR1 expressing CHO-K1 cells (CisBio HTRF). The class given is cell-based. Conditions: for AC50: cGMP production, 30 min at 37° C., 12-point dose-response from 30 μM; for Human NPR1 Amax (% of ANP): maximum cGMP production as percentage of the maximum cGMP produced with ANP. In a few lines: (§1)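 CHO-K1 cells expressing human or cynomolgus NPR1 treated with compound (12-point, 3-fold dilutions from 30 μM top) in PBS+0.1% BSA with 1 mM IBMX, 30 min at 37° C. After lysis, cGMP quantified by HTRF competition (cGMP-d2/anti-cGMP-cryptate, 1 h RT, 665 nm emission) against a calibrator standard curve.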

Experiment [2] deals with monkey NPR1 (Macaca fascicularis, UniProt A0A7N9DBT9). Briefly: Cellular cGMP production assay, monkey NPR1 expressing CHO-K1 cells (CisBio HTRF). In kind it is cell-based. The conditions noted are these: for Monkey NPR1 Amax (% of ANP): maximum cGMP production as percentage of the maximum cGMP produced with ANP. An outline of the steps:
as §1
In general terms: In TR-FRET formats the signal depends on donor and acceptor labels being close together.

[3] abbreviates: cGMP production, monkey NPR1 CHO-K1 cells, 30 min at 37° C., 12-point dose-response from 30 μM, read-out: Monkey NPR1 AC50.

Usually AC50 stands for the concentration giving half of the maximal activity seen.

Where two headings read alike, the source gives them in different places.

Sequence of monkey NPR1 (A0A7N9DBT9 entry or part of it): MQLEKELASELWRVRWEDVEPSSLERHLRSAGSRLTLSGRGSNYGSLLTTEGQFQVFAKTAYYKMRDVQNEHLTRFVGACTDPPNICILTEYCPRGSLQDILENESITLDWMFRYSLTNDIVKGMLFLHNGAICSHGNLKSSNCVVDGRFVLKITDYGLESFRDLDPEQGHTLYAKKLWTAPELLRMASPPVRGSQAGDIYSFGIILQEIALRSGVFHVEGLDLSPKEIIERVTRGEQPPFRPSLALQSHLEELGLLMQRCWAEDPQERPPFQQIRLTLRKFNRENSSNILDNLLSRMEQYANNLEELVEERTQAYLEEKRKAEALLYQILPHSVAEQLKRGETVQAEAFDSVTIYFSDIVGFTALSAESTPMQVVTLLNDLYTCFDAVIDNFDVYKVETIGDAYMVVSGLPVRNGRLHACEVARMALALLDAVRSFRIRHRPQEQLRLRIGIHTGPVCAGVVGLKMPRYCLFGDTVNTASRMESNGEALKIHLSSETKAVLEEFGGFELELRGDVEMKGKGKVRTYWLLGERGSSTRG

Take `CC[C@H](N(C)c1nc2c(c(N[C@@H](CN3CCC[C@@H](CF)C3)c3cnn(C)c3)n1)C[C@@](C)(c1ccccc1)CC2)C12CC(C(=O)O)(C1)C2` [Compound 36, 3-((S)-1-(((S)-4-(((R)-2-((R)-3-(fluoromethyl)piperidin-1-yl)-1-(1-methyl-1H-pyrazol-4-yl)ethyl)amino)-6-methyl-6-phenyl-5,6,7,8-tetrahydroquinazolin-2-yl)(methyl)amino)propyl)bicyclo[1.1.1]pentane-1-carboxylic acid]: the AC50 in experiment [1] was found to be 150 nM; in experiment [2] (setting [3]), 133 nM. Besides, the “Human NPR1 Amax (% of ANP)” value in experiment [1] is on record as 101.036 % of ANP. In addition, in experiment [2] (monkey NPR1 CHO-K1 cells), the “Monkey NPR1 Amax (% of ANP)” value is 101.251 % of ANP.
As to `CCn1cc([C@H](CN2C3CCCC2CCC3)Nc2nc(N[C@H](C)c3ccc(C(=O)O)cc3)nc3c2C[C@H](c2cccc(F)c2)CC3)cn1` [Compound 153, 4-((R)-1-(((R)-4-(((R)-2-((1S,5S)-9-azabicyclo[3.3.1]nonan-9-yl)-1-(1-ethyl-1H-pyrazol-4-yl)ethyl)amino)-6-(3-fluorophenyl)-5,6,7,8-tetrahydroquinazolin-2-yl)amino)ethyl)benzoic acid], the AC50 in experiment [1] came to 1200 nM; in experiment [2] it was 753 nM. In addition, the “Human NPR1 Amax (% of ANP)” value in experiment [1] is reported as 93.868 % of ANP. For the same molecule, in experiment [2] (monkey NPR1 CHO-K1 cells), the “Monkey NPR1 Amax (% of ANP)” value is listed as 98.372 % of ANP.
Regarding `CC[C@@H](N(C)c1nc2c(c(N[C@@H](CN3C4CCCC3CCC4)c3cnn(C)c3)n1)C[C@H](c1ccc(F)cc1)CC2)C12CC(C(=O)O)(C1)C2` [Compound 11, 3-((R)-1-(((R)-4-(((R)-2-((1S,5S)-9-azabicyclo[3.3.1]nonan-9-yl)-1-(1-methyl-1H-pyrazol-4-yl)ethyl)amino)-6-(4-fluorophenyl)-5,6,7,8-tetrahydroquinazolin-2-yl)(methyl)amino)propyl)bicyclo[1.1.1]pentane-1-carboxylic acid], in experiment [1], the AC50 amounted to 94 nM and the “Human NPR1 Amax (% of ANP)” value is 103.738 % of ANP. The AC50 in experiment [2] was 70 nM. Besides, the “Monkey NPR1 Amax (% of ANP)” value in experiment [2] (monkey NPR1 CHO-K1 cells) is on record as 113.853 % of ANP.
Regarding `CC[C@H]([C@H]1CC[C@H](C(=O)O)CC1)N(C)c1nc2c(c(N[C@@H](CN3CCC[C@H](CF)C3)c3cnn(C)c3)n1)C[C@H](c1cccc(F)c1)CC2` [Compound 19, (1R,4r)-4-((R)-1-(((R)-4-(((R)-2-((S)-3-(fluoromethyl)piperidin-1-yl)-1-(1-methyl-1H-pyrazol-4-yl)ethyl)amino)-6-(3-fluorophenyl)-5,6,7,8-tetrahydroquinazolin-2-yl)(methyl)amino)propyl)cyclohexane-1-carboxylic acid], in experiment [1], the AC50 turned out to be 108 nM and the “Human NPR1 Amax (% of ANP)” value is 100.504 % of ANP. Further, in experiment [2] (setting [3]), the AC50 amounted to 82 nM. In addition, in experiment [2] (monkey NPR1 CHO-K1 cells), the “Monkey NPR1 Amax (% of ANP)” value is given as 98.174 % of ANP.
For `CC[C@H]([C@H]1CC[C@H](C(=O)O)CC1)N(C)c1nc2c(c(N[C@@H](CN3CCC[C@H](COC)C3)c3cnn(C)c3)n1)C[C@H](c1ccccc1)CC2` [Compound 83, (1R,4r)-4-((R)-1-(((R)-4-(((R)-2-((S)-3-(methoxymethyl)piperidin-1-yl)-1-(1-methyl-1H-pyrazol-4-yl)ethyl)amino)-6-phenyl-5,6,7,8-tetrahydroquinazolin-2-yl)(methyl)amino)propyl)cyclohexane-1-carboxylic acid], in that order: 282 nM, 98.117 % of ANP, 173 nM and 98.205 % of ANP.
Take `CC[C@@H](N(C)c1nc2c(c(N[C@@H](CN3C4CCCC3CC4)c3cnn(C)c3)n1)C[C@](C)(c1ccccc1)CC2)C12CC(C(=O)O)(C1)C2` [Compound 28, 3-((1R)-1-(((6R)-4-(((1R)-2-(8-azabicyclo[3.2.1]octan-8-yl)-1-(1-methyl-1H-pyrazol-4-yl)ethyl)amino)-6-methyl-6-phenyl-5,6,7,8-tetrahydroquinazolin-2-yl)(methyl)amino)propyl)bicyclo[1.1.1]pentane-1-carboxylic acid]: in experiment [1], the AC50 came to 139 nM and the “Human NPR1 Amax (% of ANP)” value was 103.247 % of ANP. Moreover, the AC50 in experiment [2] amounted to 134 nM. Besides, in experiment [2] (monkey NPR1 CHO-K1 cells), the “Monkey NPR1 Amax (% of ANP)” value is 105.314 % of ANP.
In the case of `CC[C@H]([C@H]1CC[C@H](C(=O)O)CC1)N(C)c1nc2c(c(N[C@@H](CN3CCCCC3)c3cnn(CC(F)(F)F)c3)n1)C[C@H](c1ccccc1)CC2` [Compound 167, (1R,4r)-4-((R)-1-(methyl((R)-6-phenyl-4-(((R)-2-(piperidin-1-yl)-1-(1-(2,2,2-trifluoroethyl)-1H-pyrazol-4-yl)ethyl)amino)-5,6,7,8-tetrahydroquinazolin-2-yl)amino)propyl)cyclohexane-1-carboxylic acid], in experiment [1], the activity was half-maximal at 2090 nM (AC50) and the “Human NPR1 Amax (% of ANP)” value is on record as 112.087 % of ANP. In experiment [2] (setting [3]), the AC50 worked out at 1430 nM. Also, the “Monkey NPR1 Amax (% of ANP)” value in experiment [2] (monkey NPR1 CHO-K1 cells) is 98.847 % of ANP.
Taken in the same sequence, the figures for `CC[C@H]([C@H]1CC[C@H](C(=O)O)CC1)N(C)c1nc2c(c(N[C@@H](CN3CCC[C@H](C)C3)c3cnn(C)c3)n1)CN(c1ccccc1F)CC2` [Compound 106, (1R,4r)-4-((R)-1-((6-(2-fluorophenyl)-4-(((R)-1-(1-methyl-1H-pyrazol-4-yl)-2-((S)-3-methylpiperidin-1-yl)ethyl)amino)-5,6,7,8-tetrahydropyrido[4,3-d]pyrimidin-2-yl)(methyl)amino)propyl)cyclohexane-1-carboxylic acid] were 399 nM, 100.198 % of ANP, 254 nM and 104.076 % of ANP.
For `CC[C@@H]1CCCCN1C[C@H](Nc1nc(N[C@H](CC)[C@H]2CC[C@H](C(=O)O)CC2)nc2c1C[C@H](c1ccccc1)CC2)c1cnn(C)c1` [Compound 96, (1R,4r)-4-((R)-1-(((R)-4-(((R)-2-((R)-2-ethylpiperidin-1-yl)-1-(1-methyl-1H-pyrazol-4-yl)ethyl)amino)-6-phenyl-5,6,7,8-tetrahydroquinazolin-2-yl)amino)propyl)cyclohexane-1-carboxylic acid], the AC50 in experiment [1] is 336 nM; in experiment [2] (setting [3]), 106 nM. The “Human NPR1 Amax (% of ANP)” value in experiment [1] is 103.654 % of ANP. Also, the “Monkey NPR1 Amax (% of ANP)” value in experiment [2] (monkey NPR1 CHO-K1 cells) was 101.912 % of ANP.
`CC[C@H]([C@H]1CC[C@H](C(=O)O)CC1)N(C)c1nc2c(c(N[C@@H](CN3C4CCCC3CC(O)C4)c3ccccc3)n1)C[C@H](c1ccccc1)CC2` (stereo partly drawn) [Compound 112, (1R,4r)-4-((1R)-1-(((6R)-4-(((1R)-2-((1R,5S)-3-hydroxy-9-azabicyclo[3.3.1]nonan-9-yl)-1-phenylethyl)amino)-6-phenyl-5,6,7,8-tetrahydroquinazolin-2-yl)(methyl)amino)propyl)cyclohexane-1-carboxylic acid]: in experiment [1], the AC50 is 427 nM and the “Human NPR1 Amax (% of ANP)” value was 90.394 % of ANP. Moreover, the AC50 in experiment [2] came out at 394 nM. In addition, the “Monkey NPR1 Amax (% of ANP)” value in experiment [2] (monkey NPR1 CHO-K1 cells) is reported as 97.009 % of ANP.
Turning to `CC[C@H]([C@H]1CC[C@H](C(=O)O)CC1)N(C)c1nc2c(c(N[C@@H](CN3CCCCC3)c3cnn(C4CC4)c3)n1)C[C@H](c1ccccc1)CC2` [Compound 97, (1R,4r)-4-((R)-1-(((R)-4-(((R)-1-(1-cyclopropyl-1H-pyrazol-4-yl)-2-(piperidin-1-yl)ethyl)amino)-6-phenyl-5,6,7,8-tetrahydroquinazolin-2-yl)(methyl)amino)propyl)cyclohexane-1-carboxylic acid], in experiment [1], half-maximal activity (AC50) was put at 338 nM and the “Human NPR1 Amax (% of ANP)” value was 107.286 % of ANP. Besides, the AC50 in experiment [2] (setting [3]) was determined as 192 nM. Moreover, the “Monkey NPR1 Amax (% of ANP)” value in experiment [2] (monkey NPR1 CHO-K1 cells) is on record as 96.148 % of ANP.

Source of the values: patent US12129246B1, “Hydroquinazoline derivatives for the treatment of a disease or disorder” (Novartis AG, priority 2023, dated 2024).
